Results published in patent US10829473B2, “Modulators of the cystic fibrosis transmembrane conductance regulator protein and methods of use” (AbbVie Overseas S.Á.R.L., priority 2017, dated 2020).
Read-outs that look alike come from different tables or passages of the source. Marks after values point to notes of the source that are not given here.

Biological target: T1, F508delCFTR (Homo sapiens, UniProt P13569, DEL508-508)
T1 construct: expressed in transfected cells; host or cells: CFBE41o- human lung derived epithelial cells (CFBE41o-F508delCFTR-HRP), doxycycline-inducible
T1 sequence (P13569 with tags, fused parts or gaps DEL508-508): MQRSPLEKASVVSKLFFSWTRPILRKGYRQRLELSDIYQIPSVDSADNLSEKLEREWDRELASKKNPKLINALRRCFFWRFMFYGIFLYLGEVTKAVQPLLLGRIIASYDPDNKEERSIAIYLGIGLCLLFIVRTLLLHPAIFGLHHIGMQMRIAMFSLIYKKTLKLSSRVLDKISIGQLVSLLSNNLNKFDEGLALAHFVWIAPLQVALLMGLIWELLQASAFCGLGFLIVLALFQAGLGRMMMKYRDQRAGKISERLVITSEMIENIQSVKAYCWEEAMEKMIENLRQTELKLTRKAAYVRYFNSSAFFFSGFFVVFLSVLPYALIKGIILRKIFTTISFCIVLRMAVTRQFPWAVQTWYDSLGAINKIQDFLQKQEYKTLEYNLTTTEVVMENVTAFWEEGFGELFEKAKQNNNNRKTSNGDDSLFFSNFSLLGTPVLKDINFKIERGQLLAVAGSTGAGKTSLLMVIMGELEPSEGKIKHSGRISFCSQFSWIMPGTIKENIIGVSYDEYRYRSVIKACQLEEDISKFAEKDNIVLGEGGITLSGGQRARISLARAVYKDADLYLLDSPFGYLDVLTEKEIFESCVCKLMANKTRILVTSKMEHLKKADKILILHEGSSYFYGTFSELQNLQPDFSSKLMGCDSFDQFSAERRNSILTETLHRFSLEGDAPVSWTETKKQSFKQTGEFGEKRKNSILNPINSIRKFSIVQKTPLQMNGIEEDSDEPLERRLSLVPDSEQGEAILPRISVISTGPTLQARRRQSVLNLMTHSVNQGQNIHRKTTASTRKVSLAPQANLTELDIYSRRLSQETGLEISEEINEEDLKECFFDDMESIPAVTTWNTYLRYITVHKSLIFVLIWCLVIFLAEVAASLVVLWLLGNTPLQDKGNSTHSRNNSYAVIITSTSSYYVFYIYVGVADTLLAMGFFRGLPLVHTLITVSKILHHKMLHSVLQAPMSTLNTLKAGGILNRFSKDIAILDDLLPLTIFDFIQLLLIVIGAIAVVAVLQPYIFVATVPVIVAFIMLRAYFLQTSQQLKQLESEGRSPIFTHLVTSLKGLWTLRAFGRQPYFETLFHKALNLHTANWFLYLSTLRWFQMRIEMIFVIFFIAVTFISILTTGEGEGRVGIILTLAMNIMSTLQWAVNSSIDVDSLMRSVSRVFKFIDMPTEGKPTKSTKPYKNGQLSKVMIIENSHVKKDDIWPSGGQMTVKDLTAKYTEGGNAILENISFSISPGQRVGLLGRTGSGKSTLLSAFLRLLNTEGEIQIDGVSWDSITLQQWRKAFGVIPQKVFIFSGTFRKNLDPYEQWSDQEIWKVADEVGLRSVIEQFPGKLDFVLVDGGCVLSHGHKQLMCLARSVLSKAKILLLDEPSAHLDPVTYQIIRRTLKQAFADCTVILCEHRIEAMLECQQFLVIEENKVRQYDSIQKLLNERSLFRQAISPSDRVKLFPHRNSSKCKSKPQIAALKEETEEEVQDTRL
Experiment: Cell Surface Expression-Horse Radish Peroxidase (CSE-HRP) Assay;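 as to EC50 (with co-corrector): co-corrector chromenyl benzoic acid corrector at 2 or 3 µM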;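 as to Maximum % activity (without co-corrector): % of on-plate positive control chromenyl benzoic acid corrector at 2 or 3 µM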
Format: cell-based
Conditions: for Maximum % activity (with co-corrector) / Emax: maximum at any tested concentration; for Emax: read-out: Maximum % activity (without co-corrector)
Summary of the method: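 Corrector compounds were given as 8-point 3-fold series from 20 or 30 μM, with or without a 2 μM co-corrector, for 18-24 h at 33 °C. Surface HRP was read by luminol luminescence as % of positive control; variable-Hill-slope sigmoidal fitting gave EC50 from triplicate plates.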

[1] = test compound alone, without co-corrector, read-out: EC50 (without co-corrector)
[2] = with co-corrector, read-out: EC50 (with co-corrector)
[3] = test compound with co-corrector
[4] = test compound with co-corrector, read-out: EC50 (with co-corrector)
[5] = test compound without co-corrector
[6] = test compound without co-corrector, read-out: EC50 (without co-corrector)

With `CC(C)c1nc(C(F)(F)F)ccc1C1(C(=O)NS(=O)(=O)c2cccc3ncccc23)CC1` [Example GI-7, 1-[2-(propan-2-yl)-6-(trifluoromethyl)pyridin-3-yl]-N-(quinoline-5-sulfonyl)cyclopropane-1-carboxamide] the EC50 [1] was 3 to 10 µM, the “Maximum % activity (with co-corrector)” value (with co-corrector) was “+++ (≥350)” and the EC50 [2] was less than 3 µM. It also gave an Emax (without co-corrector) greater than 150%.

With `COc1ncc(C2CCC2)cc1C1(C(=O)NS(=O)(=O)c2cccc3ncc(C)n23)CC1` [II-16] the EC50 [1] was 3 to 10 µM, the “Maximum % activity (with co-corrector)” value (with co-corrector) was “+++ (≥350)” and the EC50 [2] was less than 3 µM. For the same compound, the Emax (without co-corrector) was greater than 150%.

In the case of `CC(C)COc1ccc(OC(C)C)c(C2(C(=O)NS(=O)(=O)c3cccc4[nH]ccc34)CC2)n1` [Example GI-89, N-(1H-indole-4-sulfonyl)-1-{6-(2-methylpropoxy)-3-[(propan-2-yl)oxy]pyridin-2-yl}cyclopropane-1-carboxamide], the “Maximum % activity (with co-corrector)” value [3] is reported as “+++ (≥350)”, the EC50 [4] is reported as less than 3 µM and the Emax [5] is reported as greater than 150%. For the same compound, the EC50 [6] was less than 3 µM.

With `O=C(NS(=O)(=O)c1cccc2ncccc12)C1(c2ccc(C(F)(F)F)nc2C2CCC2)CC1` [GII-14, 1-[2-cyclobutyl-6-(trifluoromethyl)pyridin-3-yl]-N-(quinoline-5-sulfonyl)cyclopropane-1-carboxamide] the “Maximum % activity (with co-corrector)” value [3] was “+++ (≥350)”, the EC50 [4] was 3 to 10 µM and the Emax [5] was greater than 150%. It also gave an EC50 [6] of 3 to 10 µM.

`Cc1cnc(OCC2CC2)c(C2(C(=O)NS(=O)(=O)c3cccc4[nH]ccc34)CC2)c1` [Example GI-97, 1-[2-(cyclopropylmethoxy)-5-methylpyridin-3-yl]-N-(1H-indole-4-sulfonyl)cyclopropane-1-carboxamide] was tested, and the “Maximum % activity (with co-corrector)” value [3] was “+++ (≥350)”, the EC50 [4] was less than 3 µM and the Emax [5] was greater than 150%. The EC50 [6] was less than 3 µM.

For `CCc1cnc(N2CCOCC2)c(C2(C(=O)NS(=O)(=O)c3cccc4ncccc34)CC2)c1` [GIII-23], the “Maximum % activity (with co-corrector)” value [3] was “++ (≥150 and <350)”, the EC50 [4] was greater than 10 µM and the Emax [5] was 50 to 150%. It also gave an EC50 [6] greater than 10 µM.

`COc1ncc(C)cc1C1(C(=O)NS(=O)(=O)c2cccc3ccccc23)CC1` [Example I-15, 1-(2-methoxy-5-methylpyridin-3-yl)-N-(naphthalene-1-sulfonyl)cyclopropane-1-carboxamide] was tested, and the EC50 [1] was 3 to 10 µM, the “Maximum % activity (with co-corrector)” value (with co-corrector) was “+++ (≥350)” and the EC50 [2] was 3 to 10 µM. It also gave an Emax (without co-corrector) greater than 150%.

`COc1cc(C)c(C2(C(=O)NS(=O)(=O)c3cccc4c3CCCN4)CC2)cn1` [GIII-17] was tested, and the “EC50 (with co-corrector)” value [3] was “++^a”, the “Maximum % activity (with co-corrector)” value [3] was “++ (≥150 and <350)” and the “EC50 (without co-corrector)” value [5] was “++^a”. For the same compound, the Emax [5] was 50 to 150%.

With `COc1ncc(C2CCC2)cc1C1(C(=O)NS(=O)(=O)c2cccc3c2ccn3C)CC1` [II-14] the EC50 [1] was less than 3 µM, the “Maximum % activity (with co-corrector)” value (with co-corrector) was “+++ (≥350)” and the EC50 [2] was less than 3 µM. The Emax (without co-corrector) was greater than 150%.

`O=C(NS(=O)(=O)c1ccc(Cl)cc1)C1(c2cccc(Cl)c2)CC1` [Example III-10, N-(4-chlorobenzene-1-sulfonyl)-1-(3-chlorophenyl)cyclopropane-1-carboxamide] was tested, and the EC50 [1] was greater than 10 µM, the “Maximum % activity (with co-corrector)” value (with co-corrector) was “+ (<150)” and the EC50 [2] was greater than 10 µM. The Emax (without co-corrector) was less than 50%.

For `COCCOc1ncc(C)cc1C1(C(=O)NS(=O)(=O)c2cccc3[nH]ccc23)CC1` [GII-53, N-(1H-indolc-4-sulfonyl)-1-[2-(2-methoxyethoxy)-5-methylpyridin-3-yl]cyclopropane-1-carboxamide], the “Maximum % activity (with co-corrector)” value [3] was “+++ (≥350)”, the EC50 [4] was 3 to 10 µM and the Emax [5] was greater than 150%. The EC50 [6] was 3 to 10 µM.

With `CNC1(c2ccc(OC)c(C3(C(=O)NS(=O)(=O)c4cccc5ncccc45)CC3)c2)CC1` [Example I-85, 1-{2-methoxy-5-[1-(methylamino)cyclopropyl]phenyl}-N-(quinoline-5-sulfonyl)cyclopropane-1-carboxamide] the EC50 [1] was greater than 10 µM, the “Maximum % activity (with co-corrector)” value (with co-corrector) was “++ (≥150 and <350)” and the EC50 [2] was 3 to 10 µM. The Emax (without co-corrector) was less than 50%.

For `CCCS(=O)(=O)NC(=O)C1(c2cccc(C)c2)CCOCC1` [Example III-120, 4-(3-methylphenyl)-N-(propane-1-sulfonyl)oxane-4-carboxamide], the EC50 [1] was greater than 10 µM, the “Maximum % activity (with co-corrector)” value (with co-corrector) was “+ (<150)” and the EC50 [2] was greater than 10 µM. For the same compound, the Emax (without co-corrector) was less than 50%.

`CC(C)Oc1ncccc1C1(C(=O)NS(=O)(=O)c2cccc3ccccc23)CC1` [GII-2, N-(naphthalene-1-sulfonyl)-1-{2-[(propan-2-yl)oxy]pyridin-3-yl}cyclopropane-1-carboxamide] was tested, and the “Maximum % activity (with co-corrector)” value [3] was “++ (≥150 and <350)”, the EC50 [4] was 3 to 10 µM and the Emax [5] was 50 to 150%. It also gave an EC50 [6] of 3 to 10 µM.

With `COc1ccc(C)c(OC)c1C1(C(=O)NS(=O)(=O)c2cccc3ccc(C)nc23)CC1` [II-39] the EC50 [1] was less than 3 µM, the “Maximum % activity (with co-corrector)” value (with co-corrector) was “+++ (≥350)” and the EC50 [2] was less than 3 µM. For the same compound, the Emax (without co-corrector) was 50 to 150%.

In the case of `Cc1ccc(OC(F)F)c(C2(C(=O)NS(=O)(=O)c3cccc4ncccc34)CC2)c1` [Example I-100, 1-[2-(difluoromethoxy)-5-methylphenyl]-N-(quinoline-5-sulfonyl)cyclopropane-1-carboxamide], the EC50 [1] is reported as less than 3 µM, the “Maximum % activity (with co-corrector)” value (with co-corrector) is reported as “+++ (≥350)” and the EC50 [2] is reported as less than 3 µM. For the same compound, the Emax (without co-corrector) was greater than 150%.

`CC(C)COc1cnc(C2CC2)c(C2(C(=O)NS(=O)(=O)c3cccc4ncccc34)CC2)c1` [Example GI-12, 1-[2-cyclopropyl-5-(2-methylpropoxy)pyridin-3-yl]-N-(quinoline-5-sulfonyl)cyclopropane-1-carboxamide] was tested, and the EC50 [1] was less than 3 µM, the “Maximum % activity (with co-corrector)” value (with co-corrector) was “+++ (≥350)” and the EC50 [2] was less than 3 µM. For the same compound, the Emax (without co-corrector) was greater than 150%.

With `CC(C)Oc1ncc(N2CCC2)cc1C1(C(=O)NS(=O)(=O)c2cccc3[nH]ccc23)CC1` [Example GI-85, 1-{5-(azetidin-1-yl)-2-[(propan-2-yl)oxy]pyridin-3-yl}-N-(1H-indole-4-sulfonyl)cyclopropane-1-carboxamide] the “Maximum % activity (with co-corrector)” value [3] was “+++ (≥350)”, the EC50 [4] was less than 3 µM and the Emax [5] was greater than 150%. The EC50 [6] was 3 to 10 µM.

`COc1ccc(C2(C(=O)NS(=O)(=O)c3cccc4ccccc34)CCCC2)cc1OC` [Example III-90, 1-(3,4-dimethoxyphenyl)-N-(naphthalene-1-sulfonyl)cyclopentane-1-carboxamide] was tested, and the EC50 [1] was greater than 10 µM, the “Maximum % activity (with co-corrector)” value (with co-corrector) was “+ (<150)” and the EC50 [2] was greater than 10 µM. It also gave an Emax (without co-corrector) of less than 50%.

With `O=C(NS(=O)(=O)c1cccc2ncccc12)C1(c2ccc(C(F)(F)F)nc2Cl)CC1` [GIII-29] the “Maximum % activity (with co-corrector)” value [3] was “+ (<150)”, the EC50 [4] was greater than 10 µM and the Emax [5] was less than 50%. For the same compound, the EC50 [6] was greater than 10 µM.

In the case of `COc1cc(C2CCC2)cc(OC)c1C1(C(=O)NS(=O)(=O)c2cccc3ncccc23)CC1` [Example I-80, 1-(4-cyclobutyl-2,6-dimethoxyphenyl)-N-(quinoline-5-sulfonyl)cyclopropane-1-carboxamide], the EC50 [1] is reported as 3 to 10 µM, the “Maximum % activity (with co-corrector)” value (with co-corrector) is reported as “+++ (≥350)” and the EC50 [2] is reported as less than 3 µM. It also gave an Emax (without co-corrector) greater than 150%.

In the case of `CCc1cnc(N2CCCC2)c(C2(C(=O)NS(=O)(=O)c3cccc4[nH]ccc34)CC2)c1` [Example GI-37, 1-[5-ethyl-2-(pyrrolidin-1-yl)pyridin-3-yl]-N-(1H-indole-4-sulfonyl)cyclopropane-1-carboxamide], the “Maximum % activity (with co-corrector)” value [3] is reported as “+++ (≥350)”, the EC50 [4] is reported as less than 3 µM and the Emax [5] is reported as greater than 150%. The EC50 [6] was 3 to 10 µM.

`COc1ncc(C(F)(F)F)cc1C1(C(=O)NS(=O)(=O)c2cccc3ccccc23)CC1` [Example I-8, 1-[2-methoxy-5-(trifluoromethyl)pyridin-3-yl]-N-(naphthalene-1-sulfonyl)cyclopropane-1-carboxamide] was tested, and the EC50 [1] was less than 3 µM, the “Maximum % activity (with co-corrector)” value (with co-corrector) was “+++ (≥350)” and the EC50 [2] was less than 3 µM. For the same compound, the Emax (without co-corrector) was greater than 150%.

`COCC1(c2ccc(OC)c(C3(C(=O)NS(=O)(=O)c4cccc5nc(C)ccc45)CC3)c2)CC1` [Example I-74, 1-{2-methoxy-5-[1-(methoxymethyl)cyclopropyl]phenyl}-N-(2-methylquinoline-5-sulfonyl)cyclopropane-1-carboxamide] was tested, and the EC50 [1] was less than 3 µM, the “Maximum % activity (with co-corrector)” value (with co-corrector) was “+++ (≥350)” and the EC50 [2] was less than 3 µM. It also gave an Emax (without co-corrector) greater than 150%.

For `Cc1ccc2c(S(=O)(=O)NC(=O)C3(c4cc(Cl)ccc4OC(F)F)CC3)cccc2n1` [II-102], the EC50 [1] was 3 to 10 µM, the “Maximum % activity (with co-corrector)” value (with co-corrector) was “+++ (≥350)” and the EC50 [2] was less than 3 µM. For the same compound, the Emax (without co-corrector) was greater than 150%.

For `COc1ccc(S(=O)(=O)NC(=O)C2(c3ccc(Cl)cc3Cl)CC2)cc1` [Example III-24, 1-(2,4-dichlorophenyl)-N-(4-methoxybenzene-1-sulfonyl)cyclopropane-1-carboxamide], the EC50 [1] was greater than 10 µM, the “Maximum % activity (with co-corrector)” value (with co-corrector) was “++ (≥150 and <350)” and the EC50 [2] was greater than 10 µM. It also gave an Emax (without co-corrector) of less than 50%.

In the case of `CCOc1ccc(C(C)(C)OCC)cc1C1(C(=O)NS(=O)(=O)c2cccc3nc(C)ccc23)CC1` [Example I-103, 1-[2-ethoxy-5-(2-ethoxypropan-2-yl)phenyl]-N-(2-methylquinoline-5-sulfonyl)cyclopropane-1-carboxamide], the EC50 [1] is reported as less than 3 µM, the “Maximum % activity (with co-corrector)” value (with co-corrector) is reported as “+++ (≥350)” and the EC50 [2] is reported as less than 3 µM. The Emax (without co-corrector) was greater than 150%.

`COc1ccc(C2CCCC2)cc1C1(C(=O)NS(=O)(=O)c2cccc3c2CCCN3)CCC1` [II-21] was tested, and the EC50 [1] was less than 3 µM, the “Maximum % activity (with co-corrector)” value (with co-corrector) was “+++ (≥350)” and the EC50 [2] was less than 3 µM. The Emax (without co-corrector) was greater than 150%.

`COc1cc(C2CCC2)cc(OC)c1C1(C(=O)NS(=O)(=O)c2cccc3[nH]ncc23)CC1` [II-76] was tested, and the EC50 [1] was 3 to 10 µM, the “Maximum % activity (with co-corrector)” value (with co-corrector) was “+++ (≥350)” and the EC50 [2] was 3 to 10 µM. For the same compound, the Emax (without co-corrector) was greater than 150%.
